In US10995225B2, “Macrocyclic polyphenols for universal coatings” (The Regents of the University of California, priority 2016, dated 2021):

Experiments:
[1] = Coating stability assay: coated substrates incubated overnight in PBS at 36° C.; format: physicochemical
Experimental: Coating Compositions and Stability Assays. A macrocyclic compound (1 mg/mL) was dissolved in DMSO. To this solution was added to 10 mM to 1.5 M salts in aqueous buffer (pH 4-10). Various substrates were coated by dipping the substrates in the coating mixture (e.g., see FIGS. 12-16) and the stability of the coating compositions were tested by incubating the coated substrates in PBS at 36° C. overnight (e.g., see FIG. 7-16). […] For example, 1 mg/mL of the arene were dissolved in DMSO (10 volume % of the total coating solution). To this solution the buffered aqueous solution containing the salt of choice and the buffer (90% of total coating solution) was added. Then the pH was adjusted using HCl or NaOH solutions. The solution was transferred to a glass vial and the different substrates where added. The vial was sealed and placed on a rocking platform for 24 h. The substrate was rinsed with DI H2O then dried with a N2 flow. Buffers used included Na2CO3 (pH 11), bicine (ph 8-9), bis-tris (pH 6-7), tris (pH 7), sodium acetate (pH 4-5). The Buffer concentration used were between 0.1 and 2.2 M. Salt concentration used were between 0 and 1.5 M.

[2] = Sessile Contact Angle / wettability of coated PDMS; format: physicochemical
Experimental: Sessile Contact Angle: 2 μL drops were placed on planar samples prepared as in the previous section. Contact angles were measured using Ramé-Hart Droplmage analysis software and hardware setup.

SMILES	optimal pH for coating stability ([1]; 0.2M MgCl2 in Bicine buffer)	optimal salt concentration for coating stability ([1]; CaCl2 in Gly buffer) [M]	optimal salt concentration for coating stability ([1]; MgCl2, pH 8.5, Bicine buffer) [M]	optimal pH for coating stability ([1]; pH screen, MgCl2 salt)	wettability of PDMS [2]
Oc1ccc(C2c3cc(c(O)cc3O)C(c3ccc(O)c(O)c3)c3cc(c(O)cc3O)C(c3ccc(O)c(O)c3)c3cc(c(O)cc3O)C(c3ccc(O)c(O)c3)c3cc2c(O)cc3O)cc1O [D-D macrocycle]	8.5	0.5	0.5	8.0	
Oc1cccc(O)c1O [pyrogallol]					increase the wettability of PDMS
